Values quoted from earlier work, collected in patent US20040126415A1, “Dermal delivery of a water-soluble selective cyclooxygenase-2 inhibitor” (priority 2002, published 2004).

Columns and labels:
COX-1 = COX-1 (Homo sapiens, UniProt P23219)
COX-2 = molecular target: T1, COX-2 (Homo sapiens, UniProt P35354)
T1 sequence (P35354 18-604): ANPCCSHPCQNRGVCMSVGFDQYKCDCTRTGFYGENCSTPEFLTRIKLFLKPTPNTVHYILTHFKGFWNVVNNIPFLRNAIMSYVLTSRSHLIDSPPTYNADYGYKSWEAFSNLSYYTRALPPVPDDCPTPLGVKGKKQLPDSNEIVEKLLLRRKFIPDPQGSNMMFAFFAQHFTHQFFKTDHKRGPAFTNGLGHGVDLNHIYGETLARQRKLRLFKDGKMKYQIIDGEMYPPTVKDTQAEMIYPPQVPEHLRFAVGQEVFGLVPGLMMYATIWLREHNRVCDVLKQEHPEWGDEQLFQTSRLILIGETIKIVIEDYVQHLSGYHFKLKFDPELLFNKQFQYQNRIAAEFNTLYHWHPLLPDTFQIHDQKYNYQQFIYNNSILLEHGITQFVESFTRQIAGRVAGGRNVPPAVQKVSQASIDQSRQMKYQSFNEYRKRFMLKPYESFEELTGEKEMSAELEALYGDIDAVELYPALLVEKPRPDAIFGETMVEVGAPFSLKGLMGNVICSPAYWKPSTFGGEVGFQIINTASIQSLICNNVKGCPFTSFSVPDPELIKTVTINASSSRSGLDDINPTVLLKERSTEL

COX-1, sequence (P23219 24-599): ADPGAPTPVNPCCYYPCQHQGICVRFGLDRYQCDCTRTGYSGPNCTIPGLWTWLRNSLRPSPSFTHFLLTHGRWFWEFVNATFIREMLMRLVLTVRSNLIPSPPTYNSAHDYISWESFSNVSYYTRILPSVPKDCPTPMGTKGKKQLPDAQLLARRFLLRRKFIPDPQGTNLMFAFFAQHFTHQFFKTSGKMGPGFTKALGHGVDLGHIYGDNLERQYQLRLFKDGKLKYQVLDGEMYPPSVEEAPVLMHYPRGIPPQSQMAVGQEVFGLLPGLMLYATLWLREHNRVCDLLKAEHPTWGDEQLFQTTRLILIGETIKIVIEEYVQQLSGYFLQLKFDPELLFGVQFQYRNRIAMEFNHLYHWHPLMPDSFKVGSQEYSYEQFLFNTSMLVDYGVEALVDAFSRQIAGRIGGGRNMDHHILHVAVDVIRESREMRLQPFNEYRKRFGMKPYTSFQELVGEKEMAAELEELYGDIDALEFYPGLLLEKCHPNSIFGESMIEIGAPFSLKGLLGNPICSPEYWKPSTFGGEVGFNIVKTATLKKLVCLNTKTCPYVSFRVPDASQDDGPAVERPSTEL

Row | in vitro inhibitory activity against COX-2 (COX-2) | SMILES | in vitro inhibitory activity against COX-1 (COX-1)
1 | weak in vitro inhibitory activity | CCC(=O)NS(=O)(=O)c1ccc(-c2c(-c3ccccc3)noc2C)cc1 [Parecoxib, N-[[4-(5-methyl-3-phenylisoxazol-4-yl)phenyl]sulfonyl]propanamide] | weak in vitro inhibitory activity
2 |  | Cc1onc(-c2ccccc2)c1-c1ccc(S(N)(=O)=O)cc1 [valdecoxib, 4-[5-methyl-3-phenylisoxazol-4-yl]benzenesulfonamide] | weak inhibitor
